Patent publication US20250163070A1, “SPIRO COMPOUND AND APPLICATION THEREOF” (HITGEN INC., priority 2022, published 2025)

molecular target: T1, CRBN/DDB1 protein (Homo sapiens (Human), UniProt Q96SW2); assay: Isothermal titration calorimetry (ITC) detection of compound binding to CRBN/DDB1; conditions: 25° C., pH 7.0, 10 μM protein, 100 μM compound, one set of sites model
T1 sequence (Q96SW2 whole entry, species assumed): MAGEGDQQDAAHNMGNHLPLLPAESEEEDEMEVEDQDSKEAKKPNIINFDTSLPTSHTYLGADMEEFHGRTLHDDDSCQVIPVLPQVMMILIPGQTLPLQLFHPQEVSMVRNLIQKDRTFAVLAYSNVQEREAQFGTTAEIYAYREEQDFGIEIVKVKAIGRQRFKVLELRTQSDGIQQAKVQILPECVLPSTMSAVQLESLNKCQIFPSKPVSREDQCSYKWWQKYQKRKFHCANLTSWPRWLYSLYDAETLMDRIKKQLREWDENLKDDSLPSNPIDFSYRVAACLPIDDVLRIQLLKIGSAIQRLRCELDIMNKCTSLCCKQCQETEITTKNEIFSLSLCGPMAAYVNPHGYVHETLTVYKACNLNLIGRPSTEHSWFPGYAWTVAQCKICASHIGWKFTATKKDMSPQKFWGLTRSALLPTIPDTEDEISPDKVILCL
T1 sequence (Q16531 whole entry partner, species assumed): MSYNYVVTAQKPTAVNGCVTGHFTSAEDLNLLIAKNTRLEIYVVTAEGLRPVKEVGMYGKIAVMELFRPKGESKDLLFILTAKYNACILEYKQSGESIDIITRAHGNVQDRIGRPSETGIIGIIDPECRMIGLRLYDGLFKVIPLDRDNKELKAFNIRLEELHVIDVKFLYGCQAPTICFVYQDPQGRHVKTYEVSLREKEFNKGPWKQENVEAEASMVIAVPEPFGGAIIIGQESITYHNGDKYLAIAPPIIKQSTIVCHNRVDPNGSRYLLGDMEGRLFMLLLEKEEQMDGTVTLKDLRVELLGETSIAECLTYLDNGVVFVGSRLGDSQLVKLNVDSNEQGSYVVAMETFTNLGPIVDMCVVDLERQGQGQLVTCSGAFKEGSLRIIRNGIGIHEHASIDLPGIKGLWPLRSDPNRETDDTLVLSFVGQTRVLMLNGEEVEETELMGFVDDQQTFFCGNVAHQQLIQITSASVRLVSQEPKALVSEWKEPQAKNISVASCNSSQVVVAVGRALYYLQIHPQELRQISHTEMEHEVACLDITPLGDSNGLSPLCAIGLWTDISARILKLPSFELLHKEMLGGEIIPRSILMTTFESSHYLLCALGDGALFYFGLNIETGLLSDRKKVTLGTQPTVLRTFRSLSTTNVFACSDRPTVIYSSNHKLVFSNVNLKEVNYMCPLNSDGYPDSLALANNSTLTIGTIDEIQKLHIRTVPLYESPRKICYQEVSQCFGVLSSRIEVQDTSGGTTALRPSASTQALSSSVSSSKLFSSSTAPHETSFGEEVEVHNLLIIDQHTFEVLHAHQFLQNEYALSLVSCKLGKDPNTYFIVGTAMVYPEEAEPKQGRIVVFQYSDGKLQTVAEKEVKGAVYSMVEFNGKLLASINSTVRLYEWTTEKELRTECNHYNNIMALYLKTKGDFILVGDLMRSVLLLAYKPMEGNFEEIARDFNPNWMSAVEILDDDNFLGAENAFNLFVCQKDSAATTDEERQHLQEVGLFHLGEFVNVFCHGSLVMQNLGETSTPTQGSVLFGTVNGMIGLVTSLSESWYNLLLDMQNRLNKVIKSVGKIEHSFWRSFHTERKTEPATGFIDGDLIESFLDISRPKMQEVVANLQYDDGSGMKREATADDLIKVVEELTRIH
Description: Experiment 2 Isothermal Titration Calorimetry (ITC) Detection of Compound Binding to CRBN/DDB1
6.1 mL of 200 mM disodium hydrogen phosphate aqueous solution and 3.9 mL of 200 mM sodium dihydrogen phosphate aqueous solution were mixed to obtain 200 mM PB buffer (pH 7.0). Then, 5397 μL of deionized water was mixed with 600 μL of 200 mM PB buffer and 3 μL of 10% Tween 20 aqueous solution to prepare a detection buffer with a pH of 7.0.
The protein storage solution was subjected to buffer exchange using the detection buffer prepared above according to the instruction of the Zeba™ Spin Desalting Columns (Thermo Fisher Scientific Inc., #89882). After the exchange was completed, ultraviolet (UV) absorption of the protein solution at OD280nm was measured using the microplate reader (BMG LABTECH Inc., PHERAstar FSX), and the concentration was calculated. Based on the measured concentration, the protein was diluted to 10 μM with the detection buffer, and added with DMSO to a final concentration of 1%, resulting in a total volume of 300 μL. After a brief centrifugation at room temperature, the solution was collected for later use.
The compound powder was dissolved in DMSO and diluted to 100 μM with the detection buffer prepared above. The DMSO concentration was adjusted to a final concentration of 1% with a total volume of 100 μL. […]

Work on `CN(C)C(=O)c1[nH]c2ccccc2c1C(=O)N1CC2(CC(=O)NC2=O)C1` [Compound A3] yielded a Kd of 15 nM.

molecular target: T1, CRBN/DDB1 protein; assay: Inhibition of CRBN/DDB1 protein activity, fluorescence resonance energy transfer (FRET) method with FITC-labeled thalidomide analog; format: binding; conditions: 5.0 nM CRBN/DDB1, 50.0 nM FITC-labeled thalidomide analog, 25° C., pH 7.0
Excerpt: Experiment 1 Detection of Compounds Inhibition of CRBN/DDB1 Protein Activity (Using a Fluorescence Resonance Energy Transfer (FRET) Method)
Microplate reader (BMG PHERAstar FSX), ECHO (LABCYTE Echo 665), microplate thermostatic oscillator (Hangzhou Ruicheng Instrument Co., Ltd.), disodium hydrogen phosphate (Sigma-Aldrich (Shanghai) Trading Co., Ltd.), sodium dihydrogen phosphate (Sigma-Aldrich (Shanghai) Trading Co., Ltd.), bovine serum albumin (Sigma-Aldrich (Shanghai) Trading Co., Ltd.), Anti-6His-Tb crypate Gold (Cisbio Bioassays Company CISBIO), CRBN/DDB1 protein (HitGen Inc.), 384-well plate (Grenier Bio-one (Shanghai) Co., Ltd.).
The compound powders were dissolved in DMSO and serially diluted using ECHO. The resulting dilutions were individually added to 384-well reaction plates, ensuring that the final concentration of DMSO in the entire reaction system (10.0 μL) was 1.0%. An equal volume of DMSO was added as a control.
The CRBN/DDB1 protein was diluted to twice the required final concentration (5.0 nM) by addition of 20 mM disodium hydrogen phosphate, 20 mM sodium dihydrogen phosphate, 0.08% bovine serum albumin and a buffer with pH 7.0. […] The Anti-6His-Tb crypate Gold and FITC-labeled thalidomide analog were diluted to twice the required final concentration by addition of 20 mM disodium hydrogen phosphate, 20 mM sodium dihydrogen phosphate, 0.08% bovine serum albumin and the buffer with pH 7.0. The final concentration of Anti-6His-Tb crypate Gold was 0.2 nM, and the final concentration of the FITC-labeled thalidomide analog was 50.0 nM, so as to obtain a mixture of Anti-6His-Tb crypate Gold/FITC-labeled thalidomide analog. 5.0 μL of the mixture of Anti-6His-Tb crypate Gold/FITC-labeled thalidomide analog was individually added to the 384-well reaction plates, followed by centrifugation at 1000 rpm for 1 min. Then the reaction plates were incubated in the microplate thermostatic oscillator at 25° C. and 250 rpm for 30 min. After the reaction was completed, the fluorescence signal values in the 384-well reaction plates were read using the microplate reader (Ex=337 nm, Em=520/490 nm).
A solvent group (containing 5.0 nM CRBN/DDB1, 0.2 nM Anti-6His-Tb crypate Gold, 50.0 nM FITC-labeled thalidomide analog and 1.0% DMSO) was used as a negative control. A reaction buffer group (containing 0.2 nM Anti-6His-Tb crypate Gold, 50.0 nM FITC-labeled thalidomide analog and 1.0% DMSO) was used as the blank control.
The residual activity percentage at each concentration was calculated using the following formula: […]
A dose-effect curve was fitted using GraphPad 6.0 to calculate the IC50 value.

`CN(C)C(=O)c1c(C(=O)N2CC3(CC(=O)NC3=O)C2)sc2ccccc12` [Compound A2] and `NC(=O)c1sc2ccccc2c1C(=O)N1CC2(CC(=O)NC2=O)C1` [Compound A10] fall in the same range of IC50: 100 to 1000 nM for the first, 100 to 1000 nM for the second.

First: CN(C)C(=O)c1[nH]c2ccccc2c1C(=O)N1CC2(CC(=O)NC2=O)C1 [Compound A3]
Second: CN(C)C(=O)c1[nH]c2ccccc2c1CN1CC2(CC(=O)NC2=O)C1 [Compound A17]
The IC50 of the first is lower: < 100 nM for the first, 100000 to 200000 nM for the second.

`CN(C)C(=O)c1ccc(C(=O)N2CC3(CC(=O)NC3=O)C2)cc1` [Compound A4] and `CN(C)C(=O)c1cccc(C(=O)N2CC3(CC(=O)NC3=O)C2)c1` [Compound A5] fall in the same range of IC50: 1000 to 10000 nM for the first, 1000 to 10000 nM for the second.

Compared with `CN(C)C(=O)c1cscc1C(=O)N1CC2(CC(=O)NC2=O)C1` [Compound A6], `CN(C)C(=O)c1sccc1C(=O)N1CC2(CC(=O)NC2=O)C1` [Compound A15] is higher in IC50: 100 to 1000 nM for the first, 1000 to 10000 nM for the second. The first is the more potent here.

`O=C1CC2(CN(C(=O)c3c(C(=O)NC4CCCCC4)sc4ccccc34)C2)C(=O)N1` [Compound A7] and `O=C1CC2(CN(C(=O)c3c(C(=O)N4CCNCC4)sc4ccccc34)C2)C(=O)N1` [Compound A8] cannot be ordered by IC50: < 100 nM for the first, < 100 nM for the second.

`O=C1CC2(CN(C(=O)c3c(C(=O)N4CC5(COC5)C4)sc4ccccc34)C2)C(=O)N1` [Compound A9] and `CC(=O)N1CCN(C(=O)c2sc3ccccc3c2C(=O)N2CC3(CC(=O)NC3=O)C2)CC1` [Compound A11] cannot be ordered by IC50: < 100 nM for the first, < 100 nM for the second.

`O=C1CC2(CN(C(=O)c3cc4ccccc4s3)C2)C(=O)N1` [Compound A12] and `O=C1CC2(CN(C(=O)c3csc4ccccc34)C2)C(=O)N1` [Compound A13] fall in the same range of IC50: 1000 to 10000 nM for the first, 1000 to 10000 nM for the second.

First: COC(=O)c1ccccc1C(=O)N1CC2(CC(=O)NC2=O)C1 [Compound A14]
Second: CN(C)C(=O)c1c(C(=O)N2CC3(CC(=O)NC3=O)C2)c2ccccc2n1C [Compound A19]
The IC50 of the first is higher: 100 to 1000 nM for the first, < 100 nM for the second.
